According to US8946426B2, “Substituted bicyclic heterocyclic compounds as gamma secretase modulators” (Janssen Pharmaceuticals, Inc., priority 2009, dated 2015):

Columns and labels:
Aβ42 = experiment: Method 1: Aβ42 sandwich ELISA in supernatant of SKNBE2 cells carrying APP 695-wild type (Tables 7a, 7b); assay type: cell-based
Protocol: (§1) Screening was carried out using SKNBE2 cells carrying the APP 695-wild type, grown in Dulbecco's Modified Eagle's Medium/Nutrient mixture F-12 (DMEM/NUT-mix F-12) (HAM) provided by Gibco (cat no. 31330-38) containing 5% Serum/Fe supplemented with 1% non-essential amino acids. Cells were grown to near confluency.
(§2) The screening was performed using the assay as described in Citron et al (1997) Nature Medicine 3: 67. Briefly, cells were plated in a 96-well plate at about 10^5 cells/ml one day prior to addition of compounds. Compounds were added to the cells in Ultraculture (Lonza, BE12-725F) supplemented with 1% glutamine (Invitrogen, 25030-024) for 18 Hours. The media were assayed by two sandwich ELISAs, for Aβ42 and Aβtotal. Toxicity of the compounds was assayed by WST-1 cell proliferation reagent (Roche, 1 644 807) according to the manufacturer's protocol.
To quantify the amount of Aβ42 in the cell supernatant, commercially available Enzyme-Linked-Immunosorbent-Assay (ELISA) kits were used (Innotest® β-Amyloid(1-42), Innogenetics N.V., Ghent, Belgium). The Aβ42 ELISA was performed essentially according to the manufacturer's protocol. Briefly, the standards (dilutions of synthetic Aβ1-42) were prepared in polypropylene Eppendorf with final concentrations of 8000 down to 3.9 pg/ml (½ dilution step). Samples, standards and blanks (100 μl) were added to the anti-Aβ42-coated plate supplied with the kit (the capture antibody selectively recognizes the C-terminal end of the antigen). The plate was allowed to incubate 3 H at 25° C. in order to allow formation of the antibody-amyloid complex. Following this incubation and subsequent wash steps a selective anti-Aβ-antibody conjugate (biotinylated 3D6) was added and incubated for a minimum of 1 Hour in order to allow formation of the antibody-Amyloid-antibody-complex. After incubation and appropriate wash steps, a Streptavidine-Peroxidase-Conjugate was added, followed 30 minutes later by an addition of 3,3′,5,5′-tetramethylbenzidine (TMB)/peroxide mixture, resulting in the conversion of the substrate into a coloured product. This reaction was stopped by the addition of sulfuric acid (0.9 N) and the colour intensity was measured by means of photometry with an ELISA-reader with a 450 nm filter.
(§3) To obtain the values reported in Table 7a, the sigmoidal dose response curves were analysed by computerised curve-fitting, with percent of inhibition plotted against compound concentration. A 4-parameter equation (model 205) in XLfit was used to determine the IC50. The top and the bottom of the curve were fixed to 100 and 0, respectively, and the hill slope was fixed to 1. The IC50 represents the concentration of a compound that is required for inhibiting a biological effect by 50% (Here, it is the concentration where Aβ peptide level is reduced by 50%).
(§4) To obtain the values reported in Table 7b, the data were calculated as percentage of the maximum amount of amyloid Beta 42 measured in the absence of the test compound. The sigmoidal dose response curves were analyzed using non-linear regression analysis with percentage of the control plotted against the log concentration of the compound. A 4-parameter equation was used to determine the IC50. The values reported in Table 7b are averaged IC50 values.

Aβtotal = experiment: Method 1: Aβtotal sandwich ELISA in supernatant of SKNBE2 cells carrying APP 695-wild type (Tables 7a, 7b); assay type: cell-based
Protocol: as §1, §2
To quantify the amount of Aβtotal in the cell supernatant, samples and standards were added to a 6E10-coated plate. The plate was allowed to incubate overnight at 4° C. in order to allow formation of the antibody-amyloid complex. Following this incubation and subsequent wash steps a selective anti-Aβ-antibody conjugate (biotinylated 4G8) was added and incubated for a minimum of 1 Hour in order to allow formation of the antibody-Amyloid-antibody-complex. After incubation and appropriate wash steps, a Streptavidine-Peroxidase-Conjugate was added, followed 30 minutes later by an addition of Quanta Blu fluorogenic peroxidase substrate according to the manufacturer's instructions (Pierce Corp., Rockford, Ill.).
as §3, §4

[1] = Table 7a, SKNBE2 cells, compounds 18 h, XLfit 4-parameter fit of percent inhibition, top/bottom fixed to 100/0, hill slope 1
[2] = Table 7b, averaged IC50, non-linear regression of percentage of control vs log concentration, 4-parameter equation
[3] = Homo sapiens, SKNBE2, Table 7b, averaged IC50, non-linear regression of percentage of control vs log concentration, 4-parameter equation

SMILES | IC50 (Aβ42; [2]) [nM] | IC50 (Aβtotal; [2]) [nM] | also measured
Cc1ccc(-c2cn3cccc(Nc4ccc(-c5ocnc5C)nc4)c3n2)c(F)c1 [Compound 45] | 813 | > 30000 | IC50 (Aβ42; [1]): 848 nM; IC50 (Aβtotal; [1]): > 30000 nM
Cc1ncc(-c2ccc(Nc3cccn4cc(-c5ccc(F)cc5C)nc34)cc2)o1 [Compound 46] | 110 | > 3000 | 
Cc1ccc(-c2cn3cccc(Nc4ccc(-c5cnc(C)o5)cc4)c3n2)c(F)c1 [Compound 47] | 447 | > 3000 | IC50 (Aβ42; [1]): 486 nM; IC50 (Aβtotal; [1]): > 3000 nM
COc1cc(Nc2cccn3cc(-c4cc(F)ccc4C)nc23)ccc1-c1cnc(C)o1 [Compound 48] | 132 | > 10000 | 
Cc1ccc(C(F)(F)F)cc1-c1cn2cccc(Nc3ccc(-c4ocnc4C)nc3)c2n1 [Compound 51] | 72 | > 3000 | 
COc1cc(Nc2cccn3cc(-c4ccccc4C)nc23)ccc1-c1cnc(C)s1 [Compound 52] | 166 | > 3000 | 
Cc1ncc(-c2ccc(Nc3nccc4c3nc(-c3ccc(F)cc3F)n4C)cc2)o1 [Compound 53] | 1900 | > 10000 | 
Cc1ncc(-c2ccc(Nc3nccc4c3nc(-c3ccc(F)cc3F)n4C)cc2F)o1 [Compound 55] | 3020 | > 10000 | 
Cc1ncc(-c2ccc(Nc3nccn4cc(-c5ccc(F)cc5C)nc34)cc2)o1 [Compound 57] | 1070 | > 10000 | 
Cc1ncc(-c2ccc(Nc3nc(Br)cn4cc(-c5ccc(F)cc5C)nc34)cc2)o1 [Compound 60] | 3020 | > 3000 | 
Cc1ncoc1-c1ccc(Nc2cccc3c2nc(COc2ccccc2)n3C)cn1 [Compound 61] | 1070 | > 3000 | 
COc1cc(-c2nc3c(Nc4ccc(-c5cnc(C)o5)c(OC)c4)cccc3n2C)ccc1Cl [Compound 62] | 9 | > 3000 | 
CCn1c(CC2CC2)nc2c(Nc3ccc(-c4cnc(C)o4)c(OC)c3)cccc21 [Compound 64] | 68 | > 3000 | 
Cn1cc(-c2ccc(Nc3cccc4c3nc(-c3ccc(F)cc3)n4C)cc2)cn1 [Compound 67] | 65 | > 3000 | 
Cn1cc(-c2ccc(Nc3cccc4c3nc(-c3ccc(F)cc3)n4C)cn2)cn1 [Compound 70] | 76 | > 3000 | 
Cn1nccc1-c1ccc(Nc2cccc3c2nc(-c2ccc(F)cc2)n3C)nc1 [Compound 71] | 1950 | > 3000 | 
Cn1nccc1-c1ccc(Nc2cccc3c2nc(-c2ccc(F)cc2)n3C)cc1 [Compound 72] | 955 | > 3000 | 
COc1cc(Nc2cccc3c2nc(-c2ccc(F)cc2)n3C)ccc1-c1ncnn1C [Compound 75] | 1150 | > 3000 | 
Cc1ncc(-c2ccc(Nc3cccc4c3nc(-c3ccc(F)cc3)n4C)cn2)s1 [Compound 76] | 182 | > 3000 | 
COc1cc(Nc2cccc3c2nc(-c2ccc(F)cc2)n3C(C)C)ccc1-c1cnc(C)s1 [Compound 77] | 43 | > 3000 | 
COc1cc(Nc2nccc3c2nc(-c2ccc(F)cc2F)n3C)ccc1-c1cnc(C)s1 [Compound 78] | 275 | > 3000 | 
Cc1nc(C)c(-c2ccc(Nc3cccc4c3nc(-c3ccc(F)cc3)n4C)cc2)o1 [Compound 83] | 59 | > 3000 | 
Cc1ncc(-c2ccc(Nc3cc(F)cc4c3nc(N3CCCC3)n4C)cc2)o1 [Compound 90] | 1100 | > 3000 | 
COc1cc(Nc2nccc3c2nc(CCC(F)(F)F)n3C)ccc1-c1cnc(C)o1 [Compound 91] | 1440 | 66100 | 
COc1cc(Nc2nc(C)cc3c2nc(C2CCOCC2)n3C)ccc1-c1cnc(C)o1 [Compound 92] | 2570 | > 3000 | 

SMILES | IC50 (Aβ42; [2]) [nM] | IC50 (Aβtotal; [2]) [nM] | also measured
COc1cc(Nc2nc(C3CC3)cc3c2nc(-c2ccc(F)cc2)n3C)ccc1-c1cnc(C)o1 [Compound 94] | 83 | > 3000 | 
COc1cccc(-c2nc3c(Nc4ccc(-c5cnc(C)o5)cc4)nc(C)cc3n2C)c1 [Compound 98] | 71 | > 3000 | 
Cc1ncc(-c2ccc(Nc3cc(C(F)(F)F)cc4c3nc(C3CCOCC3)n4C)cc2)o1 [Compound 100] | 2240 | 25100 | 
COc1cc(Nc2nc(C)cc3c2nc(-c2cccc(OC(C)C)c2)n3C)ccc1-c1cnc(C)o1 [Compound 102] | 24 | > 3000 | 
COc1cccc(-c2nc3c(Nc4ccc(-c5cnc(C)o5)nc4)cc(C#N)cc3n2C)c1 [Compound 103] | 36 | > 3000 | 
COc1cc(Nc2cc(F)cc3c2nc(N(C)CC(C)C)n3C)ccc1-c1cnc(C)o1 [Compound 108] | 132 | > 10000 | 
COc1cccc(-c2nc3c(Nc4ccc(-c5cnc(C)o5)c(F)c4)nccc3n2C)c1 [Compound 109] | 145 | 2820 | 
Cc1ncoc1-c1ccc(Nc2cc(C#N)cc3c2nc(-c2ccc(F)cc2)n3C)cn1 [Compound 110] | 83 | > 3000 | 
Cc1ncoc1-c1ccc(Nc2cccc3c2nc(-c2cccc(Cl)c2)n3C(C)C)cn1 [Compound 112] | 28 | > 1000 | 
Cc1ncoc1-c1ccc(Nc2cc(F)cc3c2nc(-c2ccccc2Cl)n3C)cn1 [Compound 114] | 72 | > 3000 | 
Cc1ncoc1-c1ccc(Nc2nccc3c2nc(-c2ccccc2Cl)n3C)cn1 [Compound 117] | 724 | > 10000 | 
COc1cc(Nc2cc(CN)cc3c2nc(-c2ccc(F)cc2)n3C)ccc1-c1ocnc1C [Compound 120] |  |  | IC50 (Aβ42; [3]): 324 nM; IC50 (Aβtotal; [3]): > 3000 nM
COc1cccc(-c2nc3c(Nc4ccc(-c5ocnc5C)c(OC)c4)nc(C)cc3n2C)c1 [Compound 121] | 20 | > 3000 | 
COc1cccc(-c2nc3c(Nc4ccc(-c5ocnc5C)c(OC)c4)cc(C#N)cc3n2C)c1 [Compound 122] | 38 | > 3000 | 
COc1cc(Nc2cc(C#N)cc3c2nc(-c2ccc(F)cc2)n3C)ccc1-c1ocnc1C [Compound 123] | 26 | > 1000 | 
Cc1ncoc1-c1ccc(Nc2cccc3c2nc(-c2ccc(F)cc2)n3C)cc1 [Compound 124] | 51 | > 3000 | 
COc1cc(Nc2cc(C(F)(F)F)cn3c(C)c(C)nc23)ccc1-c1ocnc1C [Compound 142] | 468 | > 10000 | 
COc1cc(Nc2cc(C(F)(F)F)cn3cc(C(=O)N(C)C)nc23)ccc1-c1ocnc1C [Compound 143] | 9770 | > 30000 | 
COc1cc(Nc2cccn3c(C)c(C)nc23)ccc1-c1ocnc1C [Compound 144] | 468 | 13800 | 
COc1cc(Nc2cc(C#N)cn3cc(-c4ccc(F)cc4C)nc23)ccc1-c1ocnc1C [Compound 146] | 355 | > 30000 | 
COc1cc(Nc2cc(C)cn3cc(-c4ccc(F)cc4C)nc23)ccc1-c1ocnc1C [Compound 149] | 47 | > 3000 | 
COc1cc(Nc2cc(CN)cn3cc(-c4ccc(F)cc4C)nc23)ccc1-c1ocnc1C [Compound 150] | 437 | 8130 | 
COc1cccc(-c2nc3c(Nc4ccc(-c5ocnc5C)cc4)cccn3c2C)c1 [Compound 152] | 23 | > 3000 | 
COc1cc(Nc2nc(C3CC3)cn3cc(C)nc23)ccc1-c1ocnc1C [Compound 153] | 1320 | > 3000 | 
Cc1ncoc1-c1ccc(Nc2cccn3cc(C4CCOCC4)nc23)cn1 [Compound 154] | 2040 | > 3000 | 
